Assay results published in patent US20220193124A1, “Therapeutic Agent for Flavivirus Infection” (NEOPHARMA JAPAN CO., LTD., priority 2019, published 2022).
Where two headings read alike, the source gives them in different places.

How the values were obtained:
[1] = system: Japanese encephalitis virus Nakayama strain (JEV Nakayama); assay: Inhibitory effect on Japanese encephalitis virus replication in Vero cells (progeny virus titer by plaque assay); assay type: cell-based
[2] = MTT assay, cell toxicity in non-infected cells; assay type: cell-based; conditions: African green monkey, Vero cells (non-infected); non-infected cells; treatment for 7 days; read-out: CC50 (concentration at which cell toxicity is caused to 50% of cells)
Procedure: (§1) (1) One day before the experiment, Vero cells were inoculated in a 96-well plate and incubated at 37° C. and 5% CO2. (2) Two-fold serial dilutions of 5-ALA were prepared (˜0.8 mM) using the maintenance culture solution (MEM+1% fetal bovine serum+10 mM non-essential amino acid+1000 U/ml penicillin+100 μg/ml streptomycin+1 mM HEPES). Water was used as a negative control. Two-fold serial dilutions of lucidone were also prepared (˜160 μM) in the same manner. (3) The culture solution was removed from the plate thus prepared, and the 5-ALA solution or the lucidone solution prepared in (2) was added to the plate in a volume of 100 μl per well. Three wells were used for each condition. (4) The old culture solution was removed from the plate every 24 hours, and the fresh 5-ALA solution or lucidone solution was added to the plate, followed by culturing. (5) The cells were cultured with the 5-ALA solution for 2, 4, or 7 days or with the lucidone solution for 7 days, and then rinsed with PBS twice. An MTT solution in a volume of 100 μl was added to the cells, and the cells were cultured at 37° C. and 5% CO2 for 3 hours. The MTT solution in use was prepared by dissolving thiazolyl blue tetrazolium bromide in a mixture containing equal volumes of 2×MEM and sterile water (10 mg/ml) and sterilizing the resulting mixture by filtration (prepared before use). (6) The culture solution was removed from the plate, and isopropyl alcohol in a volume of 100 μl was added to the plate, and the plate was subject to shaking at room temperature for about 5 minutes. (7) The absorbance at 570 nm was measured, and the relative absorbance was calculated as a percentage with respect to the absorbance in the well of 0 mM treatment.

Vero cells = assay: MTT assay, cell toxicity in non-infected cells; assay type: cell-based
Procedure: as §1

[3] = system: dengue virus type-1 Mochizuki strain (DENV1); assay: Inhibitory effect on dengue virus type-1 replication in Vero cells; assay type: cell-based
Procedure: (1) One day before infection (Day 0), Vero cells were seeded in a 24-well plate and incubated at 37° C. and 5% CO2. A culture solution was MEM+10% fetal bovine serum+10 mM non-essential amino acid+1000 U/ml penicillin+100 μg/ml streptomycin. In an experiment in which the treatment with the agent was performed before infection, the agent to be examined was added to the culture solution at this point. In all experiments, 5-aminolevulinic acid hydrochloride was used as 5-ALA, sodium ferrous citrate (SFC) was used as an iron-containing compound, 300 μM ribavirin or lucidone of various concentrations was used as a positive control, and water was used as a negative control. […] After the viruses were adsorbed to the cells for 1 hour, the cells were rinsed with phosphate-buffered saline (PBS) to completely remove the inoculation liquid. A maintenance culture solution (MEM+1% fetal bovine serum+10 mM non-essential amino acid+1000 U/ml penicillin+100 μg/ml streptomycin+1 mM HEPES) in a volume of 1 ml was added to the plate, and the cells were cultured at 37° C. and 5% CO2. In an experiment in which the agent was added concurrently with infection, the agent to be examined was added to the maintenance culture solution at this point. (3) After 24 hours (Day 2), the culture solution was recovered from the plate and a fresh maintenance culture solution in a volume of 1 ml was added to the plate, and the cells were cultured at 37° C. and 5% CO2. In an experiment in which the agent was added after infection, the agent to be examined was added at predetermined time points after infection. The recovered culture solution was subjected to centrifugation at 3000 rpm for 5 minutes and the resulting supernatant was frozen and stored. […]
(1) One day before the experiment, Vero cells were inoculated in a 24-well plate and incubated at 37° C. and 5% CO2. […] The crystal violet solution was removed from the plate, and, after rinsing with water and drying, the number of plaques was counted. The viral titer in the culture solution was calculated based on the number of plaques. […]

[4] = system: dengue virus type-3 CH53489 strain (DENV3); assay: Inhibitory effect on dengue virus type-3 replication in Vero cells; assay type: cell-based
Procedure: (§2) (1) One day before infection (Day 0), Vero cells were seeded in a 24-well plate and incubated at 37° C. and 5% CO2. A culture solution was MEM+10% fetal bovine serum+10 mM non-essential amino acid+1000 U/ml penicillin+100 μg/ml streptomycin. In an experiment in which the treatment with the agent was performed before infection, the agent to be examined was added to the culture solution at this point. In all experiments, 5-aminolevulinic acid hydrochloride was used as 5-ALA, sodium ferrous citrate (SFC) was used as an iron-containing compound, 300 μM ribavirin or lucidone of various concentrations was used as a positive control, and water was used as a negative control. […] After the viruses were adsorbed to the cells for 1 hour, the cells were rinsed with phosphate-buffered saline (PBS) to completely remove the inoculation liquid. A maintenance culture solution (MEM+1% fetal bovine serum+10 mM non-essential amino acid+1000 U/ml penicillin+100 μg/ml streptomycin+1 mM HEPES) in a volume of 1 ml was added to the plate, and the cells were cultured at 37° C. and 5% CO2. In an experiment in which the agent was added concurrently with infection, the agent to be examined was added to the maintenance culture solution at this point. (3) After 24 hours (Day 2), the culture solution was recovered from the plate and a fresh maintenance culture solution in a volume of 1 ml was added to the plate, and the cells were cultured at 37° C. and 5% CO2. In an experiment in which the agent was added after infection, the agent to be examined was added at predetermined time points after infection. The recovered culture solution was subjected to centrifugation at 3000 rpm for 5 minutes and the resulting supernatant was frozen and stored. (4) Thereafter, recovering and supplying of the culture solution was repeated every 24 hours. It is of note that the infection experiments were performed using 2 wells for all conditions.
(§3) (1) One day before the experiment, Vero cells were inoculated in a 24-well plate and incubated at 37° C. and 5% CO2. (2) Samples for titer measurement were thawed and ten-fold serial dilutions of the samples were prepared using the maintenance culture solution. (3) The culture solution was removed from the plate thus prepared, and the serial dilutions prepared in procedure (2) were each inoculated in a volume of 200 μl. After adsorption for 1 hour, the inoculation liquid was removed from the plate, and 1% methyl cellulose (MEM+1% methyl cellulose+1% fetal bovine serum) in a volume of 1 ml was added to the plate. […] The crystal violet solution was removed from the plate, and, after rinsing with water and drying, the number of plaques was counted. The viral titer in the culture solution was calculated based on the number of plaques. […]

[5] = system: dengue virus type-4 TVP360 strain (DENV4); assay: Inhibitory effect on dengue virus type-4 replication in Vero cells; assay type: cell-based
Procedure: as §2, §3

[6] = system: Zika virus PRVABC59 strain (ZKV); assay: Inhibitory effect on Zika virus replication in Vero cells; assay type: cell-based
Procedure: as §2, §3

flavivirus = assay: Difference in concentrations for exhibiting cell toxicity and drug efficacy (therapeutic window)
Description: As one of action mechanisms of the anti-dengue virus activity of lucidone, an increase in HO-1 in cells is known.

heme oxygenase-1 (HO-1) = conditions: Non-Patent Literatures 11, 13, 14, 15; cited from earlier work
dengue virus = conditions: Non-Patent Literatures 9 to 11; cited from earlier work
Zika virus = conditions: Non-Patent Literatures 7 and 8, cited from earlier work
[7] = system: Japanese encephalitis virus; conditions: Non-Patent Literature 6; cited from earlier work

Cl.NCC(=O)CCC(=O)O [5-ALA, 5-aminolevulinic acid hydrochloride]
inhibitory effect on Japanese encephalitis virus replication ([1]; 0.05 mM, treatment for 7 days after infection, FIG. 7): exhibited | inhibitory effect on Japanese encephalitis virus replication ([1]; 0.2 mM, treatment for 2 days after infection, FIG. 11): exhibited | inhibitory effect on Japanese encephalitis virus replication ([1]; 0.2 mM, treatment for 4 days after infection, FIG. 10): exhibited | inhibitory effect on Japanese encephalitis virus replication ([1]; 0.2 mM, treatment for 7 days after infection, FIG. 7): exhibited | inhibitory effect on Japanese encephalitis virus replication, 5-ALA compared with low dose lucidone ([1]; 5-ALA 0.2 mM vs lucidone 10 μM and 2.5 μM, 7 days after infection, FIG. 20): stronger inhibitory effect on the Japanese encephalitis virus replication than 10 μM and 2.5 μM of lucidone | inhibitory effect on Japanese encephalitis virus replication compared with ribavirin ([1]; 5-ALA 0.2 mM vs ribavirin 300 μM, 7 days after infection, FIG. 7): stronger than the effect of ribavirin (300 μM) | duration of inhibitory effect on Japanese encephalitis virus after removal, compared with dengue virus ([1]; 1 day treatment after infection, vs Example 4): lasted longer than in the case of the dengue virus | inhibitory effect on Japanese encephalitis virus replication, treatment for 4 days and 2 days compared with 7 days ([1]; FIG. 7, FIG. 10, FIG. 11): less inhibitory effect | inhibitory effect on Japanese encephalitis virus replication when the agent was removed from the culture solution ([1]; after removal of the agent): lost with the lapse of time | appearance of virus resistant to the agent ([1]; continuous treatment 7 days, compared with ribavirin, FIG. 7): delays the appearance of the virus resistant to the agent more than ribavirin | dose-dependent inhibitory effect on Japanese encephalitis virus replication ([1]; treatment after infection for 1 day (Day 2), 0.05 mM to 1 mM, FIG. 5): exhibited the dose-dependent inhibitory effect | CC50 at 7 days [2]: > 800 µM | cell toxicity (Vero cells; non-infected cells, 5-ALA solution for 2, 4 or 7 days, up to 0.8 mM, FIGS. 12-14): observed in the non-infected cells in a dose-dependent manner | inhibitory effect on dengue virus type-1 ([3]; 0.2 mM, treatment for 7 days after infection, FIG. 22): exhibited up to Day 9 | inhibitory effect on dengue virus type-1 replication compared with ribavirin ([3]; 5-ALA 0.2 mM vs ribavirin 300 μM, FIG. 22): stronger than the effect of ribavirin (300 μM) | inhibitory effect on dengue virus type-1 when the agent was removed from the culture solution ([3]; after removal of the agent): lost with the lapse of time | inhibitory effect on dengue virus type-3 replication on Day 8 ([4]; 0.2 mM, Day 8): decreased | inhibitory effect on dengue virus type-3 ([4]; 0.2 mM, treatment for 7 days after infection, FIG. 23): exhibited up to Day 7 | inhibitory effect on dengue virus type-3 replication compared with ribavirin ([4]; 5-ALA 0.2 mM vs ribavirin 300 μM, FIG. 23): stronger than the effect of ribavirin (300 μM) | inhibitory effect on dengue virus type-4 replication on Day 8 ([5]; 0.2 mM, Day 8): decreased | inhibitory effect on dengue virus type-4 ([5]; 0.2 mM, treatment for 7 days after infection, FIG. 24): exhibited up to Day 7 | inhibitory effect after Day 9 ([6]; 0.2 mM, after Day 9): decreased | inhibitory effect on Zika virus ([6]; 0.2 mM, treatment for 7 days after infection, FIG. 25): exhibited up to Day 8 | inhibitory effect on Zika virus replication compared with ribavirin ([6]; 5-ALA 0.2 mM vs ribavirin 300 μM, FIG. 25): stronger than the effect of ribavirin (300 μM) on Day 5, Day 6, and Day 8 | concentration required for causing the cell toxicity (flavivirus; higher than 0.8 mM not examined): at least 0.8 mM | concentration at which anti-flavivirus activity is confirmed (flavivirus; summary of Examples): ≥ 0.2 mM | heme oxygenase-1 (HO-1) in cells (heme oxygenase-1 (HO-1)): induces expression of HO-1

COC1=CC(=O)C(=C(O)/C=C/c2ccccc2)C1=O [lucidone, reference compound]
inhibitory effect on Japanese encephalitis virus replication, lucidone compared with 5-ALA ([1]; lucidone 40 μM vs 5-ALA 0.2 mM, 7 days after infection, FIG. 17): stronger inhibitory effect on the Japanese encephalitis virus replication than 0.2 mM 5-ALA | cell toxicity at 40 μM (Vero cells; cells not infected with the flavivirus, 40 μM, 7 days): did not cause the cell toxicity | cell toxicity (Vero cells; non-infected cells, lucidone for 7 days, up to 160 μM, FIG. 15): observed in a dose-dependent manner | CC50 (Vero cells; non-infected cells, treatment for 7 days, read-out: CC50 (concentration at which cell toxicity is caused to 50% of cells)): > 60 µM | concentration at which anti-flavivirus activity is confirmed (flavivirus; summary of Examples): 0.04 mM | concentration at which cell toxicity is confirmed (flavivirus; summary of Examples): 40 µM | replication of dengue virus (dengue virus): suppress replication | heme oxygenase-1 (HO-1) in cells (heme oxygenase-1 (HO-1)): increases HO-1 in cells

O=C(Nc1ccc([N+](=O)[O-])cc1Cl)c1cc(Cl)ccc1O [niclosamide]
replication of Zika virus (Zika virus): suppress replication

CC(=O)Oc1ccccc1C(=O)Nc1ncc([N+](=O)[O-])s1 [nitazoxanide]
replication of Japanese encephalitis virus [7]: suppress replication

NC(=O)c1ncn([C@@H]2O[C@H](CO)[C@@H](O)[C@H]2O)n1 [ribavirin, reference compound]
inhibitory effect on dengue virus type-3 replication under continuous treatment ([4]; ribavirin 300 μM, from Day 7): reduction in the inhibitory effect | inhibitory effect on dengue virus type-4 replication under continuous treatment ([5]; ribavirin 300 μM): reduction in the inhibitory effect | inhibitory effect on dengue virus type-4 replication, ribavirin compared with 5-ALA ([5]; ribavirin 300 μM vs 5-ALA 0.2 mM, FIG. 24): stronger than the inhibitory effect on the dengue virus replication by treatment with 5-ALA (0.2 mM) | inhibitory effect on Zika virus replication under continuous treatment ([6]; ribavirin 300 μM): reduction in the inhibitory effect | replication of dengue virus (dengue virus): suppress replication

Hemin
replication of Zika virus (Zika virus): suppress replication of Zika virus in vitro | replication of Zika virus (Zika virus; listed as hemin): reduces replication of Zika virus in vitro
